Data published in patent EP0586592B1, “INSULIN AND AMYLIN CONTAINING COMPOSITION FOR THE TREATMENT OF INSULIN DEFICIENT MAMMALS” (AMYLIN PHARMACEUTICALS, INC., priority 1991, dated 2000).
pEC50: −log10 of the molar value.

Tested on: rat soleus muscle
Type: cell-based
Settings: 4 h
Protocol: Male Harlan Sprague Dawley rats of approximately 200 g mass were used in order to maintain soleus muscle mass less than 40 mg. The animals were fasted for 4 hours prior to sacrifice by decapitation. The skin was stripped from the lower limb which was then pinned out on cork board. The tendo achilles was cut just above os […]. gastrocnemius reflected out from the posterior aspect of the tibia. M. soleus, a small 15-20 mm long, 0.5 mm thick flat muscle on the bone surface of m. gastrocnemius was then stripped clear and the perimysium cleaned off using fine scissors and forceps. M. soleus was then split into equal parts using a blade passed antero-posteriorly through the belly of the muscle to obtain a total of 4 muscle strips from each animal. […] Methods used to determine the nature and purity of rat and human amylin included quantitative amino acid analysis, gas phase amino acid sequencing, reverse phase HPLC and fast-atom-bombardment mass spectrometry. […] The concentration of human amylin present in the medium at the end of the incubation was determined by radioimmunoassay in surfactant-containing buffer. For both human and rat amylin, the actual mass added to the incubation medium was determined by quantitative amino-acid analysis. […] The remaining glycogen was redissolved in 1 mL water and 4 mL scintillation fluid and counted for ^14C. […]

CC[C@H](C)[C@H](NC(=O)[C@H](C)NC(=O)CNC(=O)[C@H](Cc1ccccc1)NC(=O)[C@H](CC(N)=O)NC(=O)[C@H](CC(N)=O)NC(=O)[C@H](CO)NC(=O)[C@H](CO)NC(=O)[C@H](Cc1c[nH]cn1)NC(=O)[C@@H](NC(=O)[C@H](CC(C)C)NC(=O)[C@H](Cc1ccccc1)NC(=O)[C@H](CC(N)=O)NC(=O)[C@H](C)NC(=O)[C@H](CC(C)C)NC(=O)[C@H](CCCNC(=N)N)NC(=O)[C@H](CCC(N)=O)NC(=O)[C@@H](NC(=O)[C@H](C)NC(=O)[C@@H]1CSSC[C@H](NC(=O)[C@@H](N)CCCCN)C(=O)N[C@@H](CC(N)=O)C(=O)N[C@@H]([C@@H](C)O)C(=O)N[C@@H](C)C(=O)N[C@@H]([C@@H](C)O)C(=O)N1)[C@@H](C)O)C(C)C)C(=O)N[C@@H](CC(C)C)C(=O)N[C@@H](CO)C(=O)N[C@@H](CO)C(=O)N[C@H](C(=O)N[C@@H](CC(N)=O)C(=O)N[C@H](C(=O)NCC(=O)N[C@@H](CO)C(=O)N[C@@H](CC(N)=O)C(=O)N[C@H](C(=O)N[C@@H](Cc1ccc(O)cc1)C(N)=O)[C@@H](C)O)C(C)C)[C@@H](C)O [human amylin]
pEC50: 9.36
